We go through two compounds from article PMC2929395 (Chemistry & biology, 2010).

Structures are written as SMILES. Changes are numbered by the printed parent chain. “Also recorded” adds a separate entry of the source.

Test [1] addresses T1, PanK3 (Homo sapiens, UniProt Q9H999). The test is described as follows: PanK3 high-throughput screen, two-step luminescence. The class given is biochemical.
Test [2] has as its target T1, PanK3. The test is described as follows: PanK3 radiochemical. The class given is biochemical.
The target of test [3] is T2, PanK3(S195V) (Homo sapiens, UniProt Q9H999, S195V).
T2 sequence (Q9H999 1-370 S195V): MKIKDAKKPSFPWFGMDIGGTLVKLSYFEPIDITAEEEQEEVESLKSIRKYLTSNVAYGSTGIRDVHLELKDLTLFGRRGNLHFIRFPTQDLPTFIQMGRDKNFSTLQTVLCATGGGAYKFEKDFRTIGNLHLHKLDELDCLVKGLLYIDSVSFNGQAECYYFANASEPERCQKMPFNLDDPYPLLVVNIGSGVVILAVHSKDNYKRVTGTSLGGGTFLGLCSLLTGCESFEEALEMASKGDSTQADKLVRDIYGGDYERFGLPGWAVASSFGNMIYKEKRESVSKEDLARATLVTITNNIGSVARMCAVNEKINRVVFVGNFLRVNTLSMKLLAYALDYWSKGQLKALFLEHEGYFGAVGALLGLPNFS
The test is described as follows: PanK3. The class given is biochemical. The conditions noted are these: radioactive assay, 800 ng PanK3(S195V).

For test [4], the target named is S. aureus PanK (SaPanK) (Staphylococcus aureus, UniProt Q2FWC7). The test is described as follows: SaPanK radiochemical assay. The class given is biochemical. To be noted: radioactive assay, 10 ng SaPanK.
S. aureus PanK (SaPanK), sequence (Q2FWC7 whole entry): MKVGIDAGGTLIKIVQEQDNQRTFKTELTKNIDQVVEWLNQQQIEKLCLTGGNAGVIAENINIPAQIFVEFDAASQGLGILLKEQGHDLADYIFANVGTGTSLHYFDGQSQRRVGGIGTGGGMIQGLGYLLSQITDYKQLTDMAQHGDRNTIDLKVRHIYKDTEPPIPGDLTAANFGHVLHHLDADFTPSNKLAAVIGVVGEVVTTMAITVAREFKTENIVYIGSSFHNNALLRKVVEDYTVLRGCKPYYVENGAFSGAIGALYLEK
Test [5] concerns the target T3, PanK2 (Homo sapiens, UniProt Q9BZ23).
T3 sequence (Q9BZ23 141-570 limits assumed): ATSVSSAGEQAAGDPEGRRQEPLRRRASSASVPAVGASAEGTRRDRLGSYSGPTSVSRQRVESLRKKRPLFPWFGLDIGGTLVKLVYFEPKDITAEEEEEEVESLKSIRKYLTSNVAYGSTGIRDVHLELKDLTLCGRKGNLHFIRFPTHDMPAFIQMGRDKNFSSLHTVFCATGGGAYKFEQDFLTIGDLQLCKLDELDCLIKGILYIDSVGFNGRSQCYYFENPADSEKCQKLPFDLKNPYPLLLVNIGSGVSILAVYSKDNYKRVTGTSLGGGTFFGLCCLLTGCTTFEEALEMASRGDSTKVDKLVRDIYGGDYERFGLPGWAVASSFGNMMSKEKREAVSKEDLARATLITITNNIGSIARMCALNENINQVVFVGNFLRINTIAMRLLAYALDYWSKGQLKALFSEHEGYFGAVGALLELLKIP
The test is described as follows: Isoform selectivity, purified PanK2. The class given is biochemical. The conditions noted are these: compared to PanK3.

The test system of test [6] is HepG2/C3A cells. The test is described as follows: CoA biosynthesis, [3H]pantothenate incorporation into CoA in HepG2/C3A cells. The class given is cell-based, human. To be noted: 24 h labeling, relative to DMSO control.
Test [7] deals with T4, PanK1β (Homo sapiens, UniProt Q8TE04).
T4 sequence (Q8TE04 1-373 isoform Q8TE04-2): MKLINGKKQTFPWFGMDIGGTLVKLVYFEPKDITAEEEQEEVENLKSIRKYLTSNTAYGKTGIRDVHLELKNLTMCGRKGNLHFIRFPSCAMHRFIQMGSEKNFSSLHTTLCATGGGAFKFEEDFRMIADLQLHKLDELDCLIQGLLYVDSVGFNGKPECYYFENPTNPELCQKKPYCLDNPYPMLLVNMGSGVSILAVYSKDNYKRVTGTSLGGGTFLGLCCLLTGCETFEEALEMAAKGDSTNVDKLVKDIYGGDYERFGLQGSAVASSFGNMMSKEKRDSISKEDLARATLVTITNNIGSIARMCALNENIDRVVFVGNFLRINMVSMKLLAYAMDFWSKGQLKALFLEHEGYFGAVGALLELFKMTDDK
The test is described as follows: Isoform selectivity, purified PanK1β. The conditions noted are these: compared to PanK3. The class given is biochemical.

Test [8] concerns the target T1, PanK3. The test is described as follows: TNP-ATP fluorescent ATP analog binding to PanK3.
The target in test [9] is T5, PanK3(A269F) (Homo sapiens, UniProt Q9H999, A269F).
T5 sequence (Q9H999 1-370 A269F): T2 sequence (Q9H999 1-370 S195V) with V195S, A269F
The test is described as follows: TNP-ATP binding to PanK3.

Test [10] has as its target T6, PanK3(A267F) (Homo sapiens, UniProt Q9H999, A267F).
T6 sequence (Q9H999 1-370 A267F): T2 sequence (Q9H999 1-370 S195V) with V195S, A267F
The test is described as follows: TNP-ATP binding to PanK3.

Test [11] has as its target T7, PanK3(R207A) (Homo sapiens, UniProt Q9H999, R207A).
T7 sequence (Q9H999 1-370 R207A): T2 sequence (Q9H999 1-370 S195V) with V195S, R207A
The test is described as follows: TNP-ATP binding to PanK3.

T1 sequence (Q9H999 whole entry): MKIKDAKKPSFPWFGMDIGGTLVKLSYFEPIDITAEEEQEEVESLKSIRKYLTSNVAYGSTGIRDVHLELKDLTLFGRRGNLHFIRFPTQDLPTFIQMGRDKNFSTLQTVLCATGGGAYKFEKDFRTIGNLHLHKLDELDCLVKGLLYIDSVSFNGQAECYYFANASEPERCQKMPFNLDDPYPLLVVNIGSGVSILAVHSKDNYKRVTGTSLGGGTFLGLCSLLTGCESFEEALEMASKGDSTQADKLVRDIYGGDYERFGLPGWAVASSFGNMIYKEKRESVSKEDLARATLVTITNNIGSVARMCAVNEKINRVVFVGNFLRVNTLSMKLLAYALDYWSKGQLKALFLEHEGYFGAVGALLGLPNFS

Compound `COc1ccc(Cl)cc1C(=O)NCCc1ccc(S(=O)(=O)NC(=O)NC2CCCCC2)cc1` [Glyburide] gave an IC50 in test [1] of 6.8 µM. For the same compound, in test [2], the midpoint of inhibition, the IC50, lay at 8.5 µM and the “Kinetic mechanism of PanK3 inhibition with respect to ATP” value is “uncompetitive”. For the same compound, in test [3], the “Inhibition of PanK3(S195V)” value is reported as “refractory to inhibition”. The “Inhibition of SaPanK” value in [4] is “refractory; also recorded: not inhibited”. The “Effect on PanK2 activity” value in [5] was “less sensitive to glyburide than PanK3”. The “Effect on CoA biosynthesis (pantothenate incorporation into CoA)” value in test [6] was “inhibited cellular CoA biosynthesis to a lesser extent than MCC-555”. In addition, the “Effect on PanK1β activity” value in test [7] is recorded as “activated rather than inhibited”.
As to `Nc1ncnc2c1ncn2[C@@H]1O[C@H](COP(=O)(O)OP(=O)(O)OP(=O)(O)O)[C@H]2OC3(O[C@H]21)C([N+](=O)[O-])=CC(=[N+]([O-])[O-])C=C3[N+](=O)[O-]` (stereo partly drawn) [TNP-ATP], the Kd in test [8] was found to be 3.6 ± 0.9 µM; in test [9], 5.4 ± 0.8 µM; in test [10] it was 3.1 ± 0.8 µM; in test [11], 3 ± 0.3 µM.

What is called IC50 is the point on the concentration scale where inhibition reaches its midpoint. Read a low IC50 as inhibition by little substance. What is called Kd is the concentration at which binding is half-saturated. Higher therefore signals a looser complex.
